Source: patent publication US7598382B2, “Aryl substituted imidazoquinolines” (Coley Pharmaceutical Group, Inc., priority 2002, dated 2009)
Structures can show the parent of a compound that is named as a salt.

melting point [°C] | Structure (SMILES)
241 to 242 | COCc1nc2c(N)nc3cc(-c4cnc(OC)nc4)ccc3c2n1CC(C)(C)O [Example 397, 1-[4-Amino-2-methoxymethyl-7-(2-methoxypyrimidin-5-yl)-1H-imidazo[4,5-c]quinolin-1-yl]-2-methylpropan-2-ol]
213 to 215 | CCOCc1nc2c(N)nc3cc(-c4cccnc4)ccc3c2n1CCNC(=O)C(C)C [Example 386, N-{2-[4-Amino-2-ethoxymethyl-7-(pyridin-3-yl)-1H-imidazo[4,5-c]quinolin-1-yl]ethyl}-2-methylpropanamide]
240 to 241 | CCOCc1nc2c(N)nc3cc(-c4cncc(CO)c4)ccc3c2n1CC1CCCCC1 [Example 439, 1-Cyclohexylmethyl-2-ethoxymethyl-7-(5-hydroxymethylpyridin-3-yl)-1H-imidazo[4,5-c]quinolin-4-amine]
207 to 208 | COCCc1nc2c(N)nc3cc(-c4cccnc4)ccc3c2n1CC(C)C [Example 145, 2-(2-Methoxyethyl)-1-(2-methylpropyl)-7-(pyridin-3-yl)-1H-imidazo[4,5-c]quinolin-4-amine]
218 to 221 | COCCc1nc2c(N)nc3cc(-c4cccnc4)ccc3c2n1CCCN1CCCC1=O [Example 183, 1-{3-[4-Amino-2-(2-methoxyethyl)-7-(pyridin-3-yl)-1H-imidazo[4,5-c]quinolin-1-yl]propyl}pyrrolidin-2-one]
256 to 257 | CC(C)(O)Cn1cnc2c(N)nc3ccc(Cc4ccccc4)cc3c21 [Example 434, 1-(4-Amino-8-benzyl-1H-imidazo[4,5-c]quinolin-1-yl)-2-methylpropan-2-ol]
168 to 170 | CCCc1nc2c(N)nc3cc(-c4cccnc4)ccc3c2n1CCCCNC(=O)C(C)C (hydrate or solvate) [Example 381, N-{4-[4-Amino-2-propyl-7-(pyridin-3-yl)-1H-imidazo[4,5-c]quinolin-1-yl]butyl}-2-methylpropanamide]
158 to 161 | CCOCc1nc2c(N)nc3cc(-c4cccc(CO)c4)ccc3c2n1CCCCN1CCCS1(=O)=O [Example 156, (5-{4-Amino-1-[4-(1,1-dioxidoisothiazolidin-2-yl)butyl]-2-ethoxymethyl-1H-imidazo[4,5-c]quinolin-7-yl}phenyl)methanol]
186 to 187.5 | CCOCc1nc2c(N)nc3cc(-c4ccncc4)ccc3c2n1CCCCN1CCCS1(=O)=O [Example 154, 1-[4-(1,1-Dioxidoisothiazolidin-2-yl)-butyl]-2-ethoxymethyl-7-(pyridin-4-yl)-1H-imidazo[4,5-c]quinolin-4-amine]
125 to 128 | CCOCc1nc2c(N)nc3cc(-c4cccc(C(=O)N5CCOCC5)c4)ccc3c2n1CC1CCOCC1 (hydrate or solvate) [Example 477, {3-[4-Amino-2-ethoxymethyl-1-(tetrahydropyran-4-ylmethyl)-1H-imidazo[4,5-c]quinolin-7-yl]phenyl}morpholin-4-ylmethanone]
159 to 160 | CCOCc1nc2c(N)nc3cc(-c4cccnc4)ccc3c2n1CCCCCS(=O)(=O)N(C)C [Example 370, Dimethyl 5-[4-amino-2-ethoxymethyl-7-(pyridin-3-yl)-1H-imidazo[4,5-c]quinolin-1-yl]pentane-1-sulfonamide]
211 to 212 | CCOCc1nc2c(N)nc3cc(-c4cncc(CO)c4)ccc3c2n1CC(C)C [Example 115, {5-[4-Amino-2-ethoxymethyl-1-(2-methylpropyl)-1H-imidazo[4,5-c]quinolin-7-yl]pyridin-3-yl}methanol]
261 to 265 | CCCCCCC1(CCCCCC)c2cc(-c3ccc4c(c3)nc(N)c3nc(COCC)n(CC(C)(C)O)c34)ccc2-c2ccc(-c3ccc4c(c3)nc(N)c3nc(COCC)n(CC(C)(C)O)c34)cc21 [Example 475, 1-(4-Amino-7-{7-[4-amino-2-ethoxymethyl-1-(2-hydroxy-2-methylpropyl)-1H-imidazo[4,5-c]quinolin-7-yl]-9,9-dihexyl-9H-fluoren-2-yl}-2-ethoxymethyl-1H-imidazo[4,5-c]quinolin-1-yl)-2-methylpropan-2-ol]
228 to 229 | CCOCc1nc2c(N)nc3cc(-c4cccnc4)ccc3c2n1Cc1ccc(CNS(C)(=O)=O)cc1 [Example 493, N-{4-[4-Amino-2-ethoxymethyl-7-(pyridin-3-yl)-1H-imidazo[4,5-c]quinolin-1-ylmethyl]benzyl}methanesulfonamide]
210 to 211 | CC(C)Cn1cnc2c(N)nc3cc(-c4cncc(CO)c4)ccc3c21 [Example 429, 1-(2-Methylpropyl)-7-(5-hydroxymethylpyridin-3-yl)-1H-imidazo[4,5-c]quinolin-4-amine]
247 to 248 | CC(C)Cn1cnc2c(N)nc3ccc(-c4csc5ccccc45)cc3c21 [Example 121, 8-Benzo[b]thiophen-3-yl-1-(2-methylpropyl)-1H-imidazo[4,5-c]quinolin-4-amine]
156 to 158 | CCOCc1nc2c(N)nc3cc(-c4ccc(S(=O)(=O)CC)cc4)ccc3c2n1CCCOC [Example 172, 7-[(4-Ethanesulfonyl)phenyl]-2-ethoxymethyl-1-(3-methoxypropyl)-1H-imidazo[4,5-c]quinolin-4-amine]

melting point [°C] | Structure (SMILES)
175 to 176 | CCOCc1nc2c(N)nc3ccc(CCc4ccccc4)cc3c2n1CC(C)(C)O [Example 151, 1-(4-Amino-2-ethoxymethyl-8-phenethyl-1H-imidazo[4,5-c]quinolin-1-yl)-2-methylpropan-2-ol]
194 to 196 | CCOCc1nc2c(N)nc3cc(-c4cccnc4)ccc3c2n1CCNC(=O)NC(C)C [Example 388, N-{2-[4-Amino-2-ethoxymethyl-7-(pyridin-3-yl)-1H-imidazo[4,5-c]quinolin-1-yl]ethyl}-N′-(1-methylethyl)urea]
238.5 to 241 | CCCc1nc2c(N)nc3cc(-c4cccnc4)ccc3c2n1CC(C)(C)O [Example 418, 1-[4-Amino-2-propyl-7-(pyridin-3-yl)-1H-imidazo[4,5-c]quinolin-1-yl]-2-methylpropan-2-ol]
145 to 146 | CCOCc1nc2c(N)nc3cc(-c4cccc(C(=O)N5CCCC5)c4)ccc3c2n1CCCOC (as salt: HCl) [Example 175, {3-[4-Amino-2-ethoxymethyl-1-(3-methoxypropyl)-1H-imidazo[4,5-c]quinolin-7-yl]phenyl}pyrrolidin-1-ylmethanone]
191 to 192 | CCCc1nc2c(N)nc3ccc(Cc4ccccc4)cc3c2n1CC(C)(C)O [Example 435, 1-(4-Amino-8-benzyl-2-propyl-1H-imidazo[4,5-c]quinolin-1-yl)-2-methylpropan-2-ol]
155 to 156 | CCOCc1nc2c(N)nc3cc(-c4cccnc4)ccc3c2n1C[C@@H]1COC(C)(C)O1 [Example 487, (R)-1-[(2,2-Dimethyl-1,3-dioxolan-4-yl)methyl]-2-ethoxymethyl-7-(pyridin-3-yl)-1H-imidazo[4,5-c]quinolin-4-amine]
130 to 132 | CCOCc1nc2c(N)nc3cc(-c4cccnc4)ccc3c2n1CC1CCN(C(=O)C(C)C)CC1 (hydrate or solvate) [Example 179, 2-Ethoxymethyl-1-[(1-isobutyrylpiperidin-4-yl)methyl]-7-(pyridin-3-yl)-1H-imidazo[4,5-c]quinolin-4-amine]
212 to 213 | COCCc1nc2c(N)nc3cc(-c4cccc(CO)c4)ccc3c2n1CC(C)(C)O [Example 140, 1-[4-Amino-7-(3-hydroxymethylphenyl)-2-(2-methoxyethyl)-1H-imidazo[4,5-c]quinolin-1-yl]-2-methylpropan-2-ol]
245 to 247 | CCc1nc2c(N)nc3cc(-c4cccnc4)ccc3c2n1CC(C)(C)O [Example 142, 1-[4-Amino-2-ethyl-7-(pyridin-3-yl)-1H-imidazo[4,5-c]quinolin-1-yl]-2-methylpropan-2-ol]
144 to 146 | CCCC(=O)NCCCCn1c(CCC)nc2c(N)nc3cc(-c4cccnc4)ccc3c21 (hydrate or solvate) [Example 380, N-{4-[4-Amino-2-propyl-7-(pyridin-3-yl)-1H-imidazo[4,5-c]quinolin-1-yl]butyl}butyramide]
182 to 185 | CCCc1nc2c(N)nc3cc(/C=C/c4ccc(C)s4)ccc3c2n1CC(C)C [Example 442, (E)-1-(2-Methylpropyl)-7-[2-(5-methylthiophen-2-yl)vinyl]-2-propyl-1H-imidazo[4,5-c]quinolin-4-amine]
192 to 194 | CCOCc1nc2c(N)nc3cc(-c4cccnc4)ccc3c2n1CCCCNC(=O)NC(C)C [Example 379, N-{4-[4-Amino-2-ethoxymethyl-7-(pyridin-3-yl)-1H-imidazo[4,5-c]quinolin-1-yl]butyl}-N′-(1-methylethyl)urea]
140 to 141 | CCCOc1cccc(-c2ccc3c(c2)nc(N)c2nc(COCC)n(CC(C)C)c23)c1 [Example 106, 2-Ethoxymethyl-1-(2-methylpropyl)-7-(3-propoxyphenyl)-1H-imidazo[4,5-c]quinolin-4-amine]
203 to 205 | Cc1nc2c(N)nc3cc(-c4ccccc4)ccc3c2n1CCCS(C)(=O)=O [Example 124, 2-Methyl-1-(3-methanesulfonylpropyl)-7-phenyl-1H-imidazo[4,5-c]quinolin-4-amine]
230 to 231.5 | CCOCc1nc2c(N)nc3cc(-c4cccnc4)ccc3c2n1CCCCS(=O)(=O)NCc1ccc(OC)cc1 [Example 367, 4-Methoxybenzyl 4-[4-amino-2-ethoxymethyl-7-(pyridin-3-yl)-1H-imidazo[4,5-c]quinolin-1-yl]butane-1-sulfonamide]
> 250 | CCOCc1nc2c(N)nc3cc(-c4cccnc4)ccc3c2n1CC1CCNCC1 (as salt: hydrochloride) [Example 177, 2-Ethoxymethyl-1-(piperidin-4-ylmethyl)-7-(pyridin-3-yl)-1H-imidazo[4,5-c]quinolin-4-amine trihydrochloride]
